In brackets after ≈: the same amount, converted by molar mass. Read-outs that look alike come from different tables or passages of the source.
Columns and labels:
[1] = test system: Acinetobacter anitratus IID 876; assay: Antibacterial activity (MIC), standard agar dilution streak method; format: cell-based; details: Acinetobacter calcoaceticus, IID876, read-out: Minimum inhibitory concentration
Protocol: (§1) The antibacterial activities of the compounds of the present invention were assayed by the standard agar dilution streak method against Gram-positive and Gram-negative bacteria [Chemotherapy, 22, 1126 (1974)].

[2] = test system: Alcaligenes faecalis 0104002; assay: as above; format: cell-based; details: read-out: Minimum inhibitory concentration
Protocol: as §1

[3] = test system: Bacillus subtilis PCI 219; assay: as above; format: cell-based; details: PCI219; Bacillus subtilis PCI 219; read-out: Minimum inhibitory concentration
Protocol: as §1

[4] = test system: Citrobacter freundii IID 976; assay: as above; format: cell-based; details: read-out: Minimum inhibitory concentration
Protocol: as §1

[5] = test system: Enterobacter cloacae IID 977; assay: as above; format: cell-based; details: read-out: Minimum inhibitory concentration
Protocol: as §1

[6] = test system: Escherichia coli NIHJ JC-2; assay: as above; format: cell-based; details: read-out: Minimum inhibitory concentration
Protocol: as §1

[7] = test system: Klebsiella pneumoniae IFO 3512; assay: as above; format: cell-based; details: read-out: Minimum inhibitory concentration
Protocol: as §1

P. mirabilis IID 994 = assay: as above; format: cell-based; details: Proteus mirabilis, IID994; P. mirabilis IID 994; read-out: Minimum inhibitory concentration
Protocol: as §1

P. morganii IID 602 = assay: as above; format: cell-based; details: Morganella morganii, IID602, P. morganii IID 602; read-out: Minimum inhibitory concentration
Protocol: as §1

Proteus vulgaris 3167 = assay: as above; format: cell-based; details: read-out: Minimum inhibitory concentration
Protocol: as §1

[8] = test system: Pseudomonas aeruginosa V-1; assay: as above; format: cell-based; details: read-out: Minimum inhibitory concentration
Protocol: as §1

S. epidermidis IID 866 = assay: as above; format: cell-based; details: Staphylococcus epidermidis, IID866, read-out: Minimum inhibitory concentration
Protocol: as §1

[9] = test system: Salmonella enteritidis IID 604; assay: as above; format: cell-based; details: Salmonella enterica; Salmonella enteritidis IID 604; read-out: Minimum inhibitory concentration
Protocol: as §1

[10] = test system: Serratia marcescens IID 618; assay: as above; format: cell-based; details: read-out: Minimum inhibitory concentration
Protocol: as §1

[11] = test system: Staphylococcus aureus 209 p; assay: as above; format: cell-based; details: Staphylococcus aureus 209 p; read-out: Minimum inhibitory concentration
Protocol: as §1

[12] = test system: Yersinia enterocolitica IID 981; assay: as above; format: cell-based; details: read-out: Minimum inhibitory concentration
Protocol: as §1

S. aureus Terajima = assay: as above; format: cell-based, Staphylococcus aureus; details: Staphylococcus aureus; S. aureus Terajima; read-out: Minimum inhibitory concentration
Protocol: as §1

E. coli ATCC 10536 = assay: as above; format: cell-based, Escherichia coli; details: Escherichia coli, ATCC10536, read-out: Minimum inhibitory concentration
Protocol: as §1

Shigella sonnei IID 969 = assay: microbe, parasite or virus in culture; format: cell-based; details: Shigella sonnei, IID969, Shigella sonnei IID 969; read-out: Minimum inhibitory concentration
Protocol: as §1

P. aeruginosa IFO 12689 = assay: Antibacterial activity (MIC), standard agar dilution streak method; format: cell-based, Pseudomonas aeruginosa; details: Pseudomonas aeruginosa, IFO12689, P. aeruginosa IFO 12689; read-out: Minimum inhibitory concentration
Protocol: as §1

[13] = Alcaligenes faecalis, 0104002, Alcaligenes faecalis 0104002
[14] = Citrobacter freundii, IID976, Citrobacter freundii IID 976
[15] = Enterobacter cloacae, IID977, Enterobacter cloacae IID 977
[16] = Escherichia coli, NIHJJC2, Escherichia coli NIHJ JC-2
[17] = Klebsiella pneumoniae, IFO3512, Klebsiella pneumoniae IFO 3512
[18] = Proteus vulgaris, 3167, Proteus vulgaris 3167
[19] = Serratia marcescens, IID618, Serratia marcescens IID 618
[20] = Yersinia enterocolitica, IID981, Yersinia enterocolitica IID 981
[21] = IID976, Citrobacter freundii IID 976
[22] = IID977, Enterobacter cloacae IID 977
[23] = IFO3512, Klebsiella pneumoniae IFO 3512
[24] = Pseudomonas aeruginosa, V1, Pseudomonas aeruginosa V-1
[25] = IID618, Serratia marcescens IID 618
[26] = IID981, Yersinia enterocolitica IID 981

Row | Structure (SMILES) | MIC [1] | MIC [2, 13] | MIC [3] | MIC [4, 14] | MIC [5, 15] | MIC [7, 17] | MIC (P. mirabilis IID 994) | MIC (P. morganii IID 602) | MIC (Proteus vulgaris 3167; [18]) | MIC ([8]; V1, Pseudomonas aeruginosa V-1) | MIC (S. epidermidis IID 866) | MIC [9] | MIC [10, 19] | MIC [11] | MIC [12, 20] | MIC (S. aureus Terajima) | MIC (E. coli ATCC 10536) | MIC (Shigella sonnei IID 969) | MIC (P. aeruginosa IFO 12689) | MIC [5, 22] | also measured
1 | CCn1cc(C(=O)O)c(=O)c2cc(F)c(N3CCC(N(C)C)CC3)c(F)c21 [Example 13, 1-Ethyl-6,8-difluoro-1,4-dihydro-7-(4-dimethylamino-1-piperidinyl)-4-oxoquinoline-3-carboxylic acid] | 0.78 µg/mL (≈ 2.06 µM) | 6.25 µg/mL (≈ 16.5 µM) | 0.1 µg/mL (≈ 0.264 µM) | 0.39 µg/mL (≈ 1.03 µM) | 3.13 µg/mL (≈ 8.25 µM) | ≤ 0.05 µg/mL | 0.39 µg/mL (≈ 1.03 µM) | 1.56 µg/mL (≈ 4.11 µM) | 0.1 µg/mL (≈ 0.264 µM) | 12.5 µg/mL (≈ 32.9 µM) | 0.39 µg/mL (≈ 1.03 µM) | 0.78 µg/mL (≈ 2.06 µM) | 0.78 µg/mL (≈ 2.06 µM) | 0.39 µg/mL (≈ 1.03 µM) | 0.78 µg/mL (≈ 2.06 µM) | 0.39 µg/mL (≈ 1.03 µM) | 0.2 µg/mL (≈ 0.527 µM) | 0.1 µg/mL (≈ 0.264 µM) | 25 µg/mL (≈ 65.9 µM) | – | MIC [6, 16]: ≤ 0.05 µg/mL
2 | Cl.Cn1cc(C(=O)O)c(=O)c2cc(F)c(N3CCNCC3)c(F)c21 [Example 1, 6,8-Difluoro-1,4-dihydro-1-methyl-4-oxo-7-(1-piperazinyl)quinoline-3-carboxylic acid hydrochloride] | 1.56 µg/mL | – | 0.39 µg/mL | – | – | – | 0.1 µg/mL | 0.2 µg/mL | – | – | 3.13 µg/mL | 0.1 µg/mL | – | 3.13 µg/mL | – | 3.13 µg/mL | 0.1 µg/mL | ≤ 0.05 µg/mL | 1.56 µg/mL | 0.1 µg/mL | MIC ([2]; Alcaligenes faecalis 0104002): 6.25 µg/mL; MIC [4, 21]: ≤ 0.05 µg/mL; MIC ([6]; NIHJJC2, Escherichia coli NIHJ JC-2): ≤ 0.05 µg/mL; MIC [7, 23]: ≤ 0.05 µg/mL; MIC [8, 24]: 3.13 µg/mL; MIC [10, 25]: 0.1 µg/mL; MIC [12, 26]: 0.1 µg/mL
3 | CCn1cc(C(=O)O)c(=O)c2cc(F)c(N3CCOCC3)c(F)c21 [Example 12, 1-Ethyl-6,8-difluoro-1,4-dihydro-7-(4-morpholinyl)4-oxoquinoline-3-carboxylic acid] | 1.56 µg/mL (≈ 4.61 µM) | 1.56 µg/mL (≈ 4.61 µM) | ≤ 0.05 µg/mL | 0.78 µg/mL (≈ 2.31 µM) | 1.56 µg/mL (≈ 4.61 µM) | ≤ 0.05 µg/mL | 0.2 µg/mL (≈ 0.591 µM) | 0.78 µg/mL (≈ 2.31 µM) | ≤ 0.05 µg/mL | 12.5 µg/mL (≈ 36.9 µM) | 0.39 µg/mL (≈ 1.15 µM) | 1.56 µg/mL (≈ 4.61 µM) | 1.56 µg/mL (≈ 4.61 µM) | 0.2 µg/mL (≈ 0.591 µM) | 0.39 µg/mL (≈ 1.15 µM) | 0.39 µg/mL (≈ 1.15 µM) | 0.39 µg/mL (≈ 1.15 µM) | 0.2 µg/mL (≈ 0.591 µM) | 12.5 µg/mL (≈ 36.9 µM) | – | MIC [6, 16]: 0.2 µg/mL (≈ 0.591 µM)
4 | C=CCn1cc(C(=O)O)c(=O)c2cc(F)c(N3CCNCC3)c(F)c21.Cl [Example 3, 1-Allyl-6,8-difluoro-1,4-dihydro-4-oxo-7-(1-piperazinyl)quinoline-3-carboxylic acid hydrochloride] | 3.13 µg/mL | – | 0.39 µg/mL | – | – | – | 0.2 µg/mL | 0.39 µg/mL | – | – | 3.13 µg/mL | 0.2 µg/mL | – | 3.13 µg/mL | – | 3.13 µg/mL | 0.39 µg/mL | 0.1 µg/mL | 6.25 µg/mL | 0.78 µg/mL | MIC ([2]; Alcaligenes faecalis 0104002): 3.13 µg/mL; MIC [4, 21]: 0.2 µg/mL; MIC [7, 23]: 0.1 µg/mL; MIC (Proteus vulgaris 3167; Proteus vulgaris 3167): 0.1 µg/mL; MIC [8, 24]: 12.5 µg/mL; MIC [10, 25]: 0.39 µg/mL; MIC [12, 26]: 0.39 µg/mL
5 | CCn1cc(C(=O)O)c(=O)c2cc(F)c(N3CCCC(O)C3)c(F)c21 (centres unmarked) [Example 10, 1-Ethyl-6,8-difluoro-1,4-dihydro-7-(3-hydroxy-1-piperidinyl)-4-oxoquinoline-3-carboxylic acid] | 1.56 µg/mL (≈ 4.43 µM) | 3.13 µg/mL (≈ 8.88 µM) | ≤ 0.05 µg/mL | 1.56 µg/mL (≈ 4.43 µM) | – | 0.1 µg/mL (≈ 0.284 µM) | – | 1.56 µg/mL (≈ 4.43 µM) | 0.1 µg/mL (≈ 0.284 µM) | 25 µg/mL (≈ 71 µM) | 0.78 µg/mL (≈ 2.21 µM) | 6.25 µg/mL (≈ 17.7 µM) | 3.13 µg/mL (≈ 8.88 µM) | 0.2 µg/mL (≈ 0.568 µM) | 1.56 µg/mL (≈ 4.43 µM) | – | 0.78 µg/mL (≈ 2.21 µM) | 0.78 µg/mL (≈ 2.21 µM) | 25 µg/mL (≈ 71 µM) | 6.25 µg/mL (≈ 17.7 µM) | –

Reference: patent US4398029A, “Quinoline carboxylic acid derivatives and process for the preparation” (Kyorin Seiyaku Kabushiki Kaisha, priority 1981, dated 1983)
